Measured values published in patent US20230099264A1, “Biomarker for Predicting Prognosis of Radiotherapy for Lung Cancer” (Korea Institute of Radiological & Medical Sciences, priority 2020, published 2023).

What was measured:
Assay type in all cases: cell-based, Human
[1] = system: IR-treated lung cancer cell line A549; experiment: Transwell invasion and migration assay of IR-treated lung cancer cells; details: IR (10 Gy)-treated A549, transwell, 24 hours
Protocol: Lung cancer cells (A549) (5×10^5) were seeded in 60 mm dishes and cultured overnight, followed by IR exposure (10 Gy) using a 137 Cs radiation source (Atomic Energy of Canada, Ltd., Mississauga, ON, Canada) to obtain IR-treated lung cancer cell lines (A549 IR (10 Gy)).
In order to analyze the cell invasion of lung cancer cells by IR treatment, Matrigel-coated transwells (Corning N. Y., USA) were used, and in order to analyze cell migration, collagen-coated transwells (Corning, N.Y., USA) were used.
(§1) Lung cancer cell line A549 (control) and IR-treated lung cancer cell line A549 (IR) were placed in an upper chamber by 5×10^4 in a Matrigel-coated transwell, and treated with EGFR, Scr, and STAT3 inhibitors, respectively. Then, 10% FBS medium was put into the lower chamber, and cells passing through the transwell were stained after 24 hours to confirm cell invasion, and the results are shown in FIGS. 3C and 3D.
as §1, with “transwell” for “transwell,”, “necrostatin.” for “EGFR, Scr, and STAT3 inhibitors, respectively.”, “4A” for “3C”, “4B. […]” for “3D.”

[2] = system: vimentin, MMP-2/9, E-cadherin; experiment: Immunoblot analysis of EMT markers with or without IL-Ra under IR irradiation
Protocol: Immunoblot analysis of samples treated with or without IL-Ra (an antagonist of IL-1β) under IR irradiation conditions was performed, and the results are shown in FIG. 8A.

[3] = system: IR-treated lung cancer cell line A549; experiment: Cell viability of IR-treated lung cancer cells under inhibitor treatment
[4] = system: vimentin, MMP2, MMP9, p-EGFR, p-Src, p-STAT3; experiment: Western blot of EMT-related and signaling proteins in IR-treated A549 cells; details: 24 hours
Protocol: In addition, lung cancer cell line A549 (control) and IR-treated lung cancer cell line A549 (IR) were seeded at 1×10^6 in a 60π dish and treated with EGFR inhibitor (EGFR inh), Src inhibitor (Src inh), and STAT3 inhibitor (STAT3 inh). The cells were treated by IR (IR-EGFR inh, IR-Src inh, and IR-STAT3 inh). The cells were harvested 24 hours later, and protein was extracted. Then, Western blot was performed to confirm the expressions of RIP1, vimentin, MMP2, MMP9, p-Src, Src, p-STAT3, STAT3, and β-action, and the results are shown in FIG. 3B (EGFR inhibitor), FIG. 3C (Src inhibitor), and FIG. 3D (STAT3 inhibitor).
(§2) In addition, lung cancer cell line A549 (control) and IR-treated lung cancer cell line A549 (IR) were seeded at 1×10^6 in a 60π dish and treated with necrostatin. The cells were harvested 24 hours later, and protein was extracted. Then, Western blot was performed to confirm the expressions of RIP1, vimentin, MMP2, MMP9, p-EGFR, EGFR, β-action, p-Src, Src, p-STAT3, and STAT3, and the results are shown in FIGS. 4D and 4E.
In addition, the same experiment as the above experiment was performed by treating a commercially available siRNA capable of inhibiting the expression of RIP1, and the results are shown in FIGS. 5A-5D.

RIP1 = experiment: Western blot of RIP1 expression in IR-treated A549 cells; details: 24 hours
Protocol: In addition, lung cancer cell line A549 (control) and IR-treated lung cancer cell line A549 (IR) were seeded at 1×10^6 in a 60π dish and treated with EGFR inhibitor (EGFR inh), Src inhibitor (Src inh), and STAT3 inhibitor (STAT3 inh). The cells were treated by IR (IR-EGFR inh, IR-Src inh, and IR-STAT3 inh). The cells were harvested 24 hours later, and protein was extracted.
as §2
In addition, lung cancer cell line A549 (control) and IR-treated lung cancer cell line A549 (IR) were seeded with 1×10^6 in a 60π dish and were treated with an NF-κB inhibitor. The cells were harvested 24 hours later, and protein was extracted. Then, Western blot was performed to confirm the expressions of RIP1, vimentin, MMP2, MMP9, p-IκBα, p-P65, p50, and p105.

Compound	cell invasion and cell migration [1]	IR-induced increase of vimentin and MMP-2/9 expressions and decrease of E-cadherin [2]	cell viability compared with lung cancer cell line not treated with radiation (control) [3]	activities/expression of vimentin, MMP2, MMP9, p-EGFR, p-Src, p-STAT3 (EMT-related factors) [4]	RIP1 expression (RIP1)
IL-Ra: an antagonist of IL-1β	almost completely blocked	inhibiting this action	–	–	–
CN1C(=O)C(Cc2c[nH]c3ccccc23)NC1=S (stereo not drawn) [necrostatin, Necrostatin-1]	reduced	–	almost similar	decreased activities	decreased expression
